For one assay, the target named is T1, purified human HDAC6 (Homo sapiens, UniProt Q9UBN7).
T1 construct: purchased BPS Bioscience 5006
T1 sequence (Q9UBN7 1-1215): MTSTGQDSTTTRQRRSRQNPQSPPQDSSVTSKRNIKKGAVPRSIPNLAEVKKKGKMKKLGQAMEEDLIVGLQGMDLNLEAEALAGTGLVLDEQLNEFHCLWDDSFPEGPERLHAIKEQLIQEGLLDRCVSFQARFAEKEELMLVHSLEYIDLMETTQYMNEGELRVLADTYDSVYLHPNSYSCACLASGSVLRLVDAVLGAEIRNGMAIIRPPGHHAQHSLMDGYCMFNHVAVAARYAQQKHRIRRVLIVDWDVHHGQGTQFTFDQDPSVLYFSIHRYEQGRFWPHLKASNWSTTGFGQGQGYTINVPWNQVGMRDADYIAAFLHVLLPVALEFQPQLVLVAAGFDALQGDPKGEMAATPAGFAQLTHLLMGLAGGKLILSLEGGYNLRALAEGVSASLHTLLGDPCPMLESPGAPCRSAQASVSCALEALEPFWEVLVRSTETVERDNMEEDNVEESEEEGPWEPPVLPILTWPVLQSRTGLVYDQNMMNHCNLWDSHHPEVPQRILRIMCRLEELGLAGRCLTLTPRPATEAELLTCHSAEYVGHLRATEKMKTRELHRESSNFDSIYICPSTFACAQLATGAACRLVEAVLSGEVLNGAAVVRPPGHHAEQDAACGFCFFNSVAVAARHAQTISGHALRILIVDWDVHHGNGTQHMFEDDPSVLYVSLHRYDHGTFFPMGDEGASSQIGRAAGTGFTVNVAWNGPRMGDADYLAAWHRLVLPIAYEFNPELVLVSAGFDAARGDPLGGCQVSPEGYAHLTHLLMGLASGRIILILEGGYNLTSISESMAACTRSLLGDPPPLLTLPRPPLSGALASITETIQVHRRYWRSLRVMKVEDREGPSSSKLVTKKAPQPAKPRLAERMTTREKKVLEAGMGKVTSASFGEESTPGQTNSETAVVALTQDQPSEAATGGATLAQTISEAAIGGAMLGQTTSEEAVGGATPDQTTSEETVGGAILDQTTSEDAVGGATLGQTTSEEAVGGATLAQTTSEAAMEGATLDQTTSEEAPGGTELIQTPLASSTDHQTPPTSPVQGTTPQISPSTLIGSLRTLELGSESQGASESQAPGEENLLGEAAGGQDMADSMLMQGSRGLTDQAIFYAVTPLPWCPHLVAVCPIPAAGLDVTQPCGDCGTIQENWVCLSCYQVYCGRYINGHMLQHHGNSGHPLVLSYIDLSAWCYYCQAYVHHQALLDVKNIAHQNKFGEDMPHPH
Put plainly: HDAC6 Enzyme Assay. It is filed as biochemical. As to conditions: bin: greater than 500 nM and less than 1 μM (lower bound in nM, upper bound in μM). The procedure, abridged: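 Deacetylated product quantified after trypsin digestion as released AMC (340/460 nm), following a 1 h, 30 °C reaction of human HDAC6 with Ac-RGK(Ac)-AMC peptide, quenched by trichostatin A. IC50 derived from DMSO-normalized curves.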
`O=C(NO)c1ccc([C@@H](NC(=O)C23CC4CC(CC(C4)C2)C3)c2ccccc2)cc1` [Compound I-259, N-[(S)-{4-[(hydroxyamino)carbonyl]phenyl}(phenyl)methyl]adamantane-1-carboxamide] gave an IC50 of 500 to 1000 nM.

Compound `Cc1cc(C(=O)NC(C)c2cccc(C(=O)NO)c2)c(C)[nH]1` (stereo not shown) [Compound I-181, N-(1-{3-[(hydroxyamino)carbonyl]phenyl}ethyl)-2,5-dimethyl-1H-pyrrole-3-carboxamide] gave an IC50 of 500 to 1000 nM.

The compound `CC(C)(C)C(NC(=O)c1cccc(S(C)(=O)=O)c1)c1ccc(C(=O)NO)cc1` (stereo not shown) [Compound I-75, N-(1-{4-[(hydroxyamino)carbonyl]phenyl}-2,2-dimethylpropyl)-3-(methylsulfonyl)benzamide] displayed an IC50 of 500 to 1000 nM.

With `C[C@H](NC(=O)C1(C)CCCCC1)c1ccc(C(=O)NO)cc1` [Compound I-273, N-hydroxy-4-((1S)-1-{[(1-methylcyclohexyl)carbonyl]amino}ethyl)benzamide], the IC50 lay within 500 to 1000 nM.

With `CC(NC(=O)c1cc(C(C)(C)C)nn1C)c1cccc(C(=O)NO)c1` (stereo not shown) [Compound I-309, 3-tert-butyl-N-(1-{3-[(hydroxyamino)carbonyl]phenyl}ethyl)-1-methyl-1H-pyrazole-5-carboxamide], the IC50 lay in the range of 500 to 1000 nM.

Take `CC(NC(=O)c1ccn(C)n1)c1cccc(C(=O)NO)c1` (stereo not shown) [Compound I-81, N-(1-{3-[(hydroxyamino)carbonyl]phenyl}ethyl)-1-methyl-1H-pyrazole-3-carboxamide]: the IC50 was 500 to 1000 nM.

Still in this assay, the particulars now being: bin: greater than 1 μM.
`CC(NC(=O)c1cccn1C)c1cccc(C(=O)NO)c1` (stereo not shown) [Compound I-263, N-(1-{3-[(hydroxyamino)carbonyl]phenyl}ethyl)-1-methyl-1H-pyrrole-2-carboxamide] gave an IC50 of over 1000 nM.

Compound `Cc1cc(C(=O)NO)ccc1C(C)NC(=O)C12CC3CC(CC(C3)C1)C2` (stereo not shown) [Compound I-491, N-(1-{4-[(hydroxyamino)carbonyl]-2-methylphenyl}ethyl)adamantane-1-carboxamide] gave an IC50 of over 1000 nM.

The compound `CC(NC(=O)Cc1ccc(F)cc1F)c1ccc(C(=O)NO)cc1` (stereo not shown) [Compound I-402, 4-(1-{[(2,4-difluorophenyl)acetyl]amino}ethyl)-N-hydroxybenzamide] returned an IC50 of over 1000 nM.

With `C[C@@H](NS(=O)(=O)c1ccc(C(F)(F)F)cc1)c1cccc(C(=O)NO)c1` [Compound I-403, N-hydroxy-3-[(1R)-1-({[4-(trifluoromethyl)phenyl]sulfonyl}amino)ethyl]benzamide], the IC50 is over 1000 nM.

Still in this assay, the particulars now being: purified human HDAC6, substrate Ac-Arg-Gly-Lys(Ac)-AMC, 1 hour at 30° C.; reported as bins.
The compound `CC(C)C(NC(=O)c1cnc2ccccc2n1)c1ccc(C(=O)NO)cc1` (stereo not shown) [Compound I-190, N-(1-{4-[(hydroxyamino)carbonyl]phenyl}-2-methylpropyl)quinoxaline-2-carboxamide] showed an IC50 of under 100 nM.

`CC(NC(=O)c1ccc2c(c1)OCO2)c1ccc(C(=O)NO)cc1` (stereo not shown) [Compound I-297, N-(1-{4-[(hydroxyamino)carbonyl]phenyl}ethyl)-1,3-benzodioxole-5-carboxamide] displayed an IC50 of under 100 nM.

Turning to `O=C(NO)c1ccc([C@@H](NC(=O)c2cc3ccccc3s2)C2CC2)cc1` [Compound I-249, N-((S)-cyclopropyl{4-[(hydroxyamino)carbonyl]phenyl}methyl)-1-benzothiophene-2-carboxamide], the IC50 lay within 100 to 500 nM.

With `CCC[C@@H](NC(=O)NC12CC3CC(CC(C3)C1)C2)c1ccc(C(=O)NO)cc1` [Compound I-18, 4-[(1R)-1-({[1-adamantylamino]carbonyl}amino)butyl]-N-hydroxybenzamide], the IC50 is under 100 nM.

`CC(C)(C)C(NC(=O)c1ccc(-c2ccccc2)cc1)c1ccc(C(=O)NO)cc1` (stereo not shown) [Compound I-355, N-(1-{4-[(hydroxyamino)carbonyl]phenyl}-2,2-dimethylpropyl)biphenyl-4-carboxamide] gave an IC50 of 100 to 500 nM.

`CC(NC(=O)C1CCCCCC1)c1ccc(C(=O)NO)cc1` (stereo not shown) [Compound I-213, N-(1-{4-[(hydroxyamino)carbonyl]phenyl}ethyl)cycloheptanecarboxamide]: the concentration for half-maximal inhibition (IC50) is under 100 nM.

`Cc1c(C(=O)N[C@@H](c2ccc(C(=O)NO)cc2)C(C)C)sc2ccccc12` [Compound I-307, N-((1R)-1-{4-[(hydroxyamino)carbonyl]phenyl}-2-methylpropyl)-3-methyl-1-benzothiophene-2-carboxamide] displayed an IC50 of under 100 nM.

`Cc1cccc(NC(=O)NC(C)c2ccc(C(=O)NO)cc2)c1` (stereo not shown) [Compound I-85, N-hydroxy-4-[1-({[(3-methylphenyl)amino]carbonyl}amino)ethyl]benzamide] registered an IC50 of under 100 nM.

As for `Cc1cccc(C(=O)NC(C)c2ccc(C(=O)NO)cc2)c1` (stereo not shown) [Compound I-295, N-(1-{4-[(hydroxyamino)carbonyl]phenyl}ethyl)-3-methylbenzamide], the IC50 was under 100 nM.

`CC(NC(=O)Nc1cccc2ccccc12)c1ccc(C(=O)NO)cc1` (stereo not shown) [Compound I-6, N-hydroxy-4-(1-{[(1-naphthylamino)carbonyl]amino}ethyl)benzamide]: the half-maximal inhibitory concentration (IC50) was under 100 nM.

In turn, `Cc1cc(C)c(C(=O)NC(c2ccc(C(=O)NO)cc2)C(C)(C)C)[nH]1` (stereo not shown) [Compound I-262, N-(1-{4-[(hydroxyamino)carbonyl]phenyl}-2,2-dimethylpropyl)-3,5-dimethyl-1H-pyrrole-2-carboxamide] yielded an IC50 of 100 to 500 nM.

`CC(C)(C)C(NC(=O)c1c[nH]c2ccccc12)c1ccc(C(=O)NO)cc1` (stereo not shown) [Compound I-319, N-(1-{4-[(hydroxyamino)carbonyl]phenyl}-2,2-dimethylpropyl)-1H-indole-3-carboxamide] had an IC50 of under 100 nM.

Regarding `COc1ccc(C(=O)N[C@@H](c2ccc(C(=O)NO)cc2)C(F)(F)F)cc1` [Compound I-122, 4-methoxy-N-((1S)-2,2,2-trifluoro-1-{4-[(hydroxyamino)carbonyl]phenyl}ethyl)benzamide], the IC50 is under 100 nM.

In the case of `CC(C)(C)C(NC(=O)c1cc2cc(Cl)ccc2o1)c1ccc(C(=O)NO)cc1` (stereo not shown) [Compound I-270, 5-chloro-N-(1-{4-[(hydroxyamino)carbonyl]phenyl}-2,2-dimethylpropyl)-1-benzofuran-2-carboxamide], the IC50 is 100 to 500 nM.

`CC(NC(=O)Nc1ccc(OC(F)F)cc1)c1ccc(C(=O)NO)cc1` (stereo not shown) [Compound I-150, 4-{1-[({[4-(difluoromethoxy)phenyl]amino}carbonyl)amino]ethyl}-N-hydroxybenzamide] came in with a 50% inhibitory concentration (IC50) of under 100 nM.

As to `C[C@@H](NC(=O)C1(C)CCCCC1)c1ccc(C(=O)NO)cc1` [Compound I-26, N-hydroxy-4-((1R)-1-{[(1-methylcyclohexyl)carbonyl]amino}ethyl)benzamide], the 50% inhibitory concentration (IC50) is under 100 nM.

The compound `CC(C)C(NC(=O)C1(c2ccccc2)CCCC1)c1ccc(C(=O)NO)cc1` (stereo not shown) [Compound I-258, N-hydroxy-4-(2-methyl-1-{[(1-phenylcyclopentyl)carbonyl]amino}propyl)benzamide] yielded an IC50 of 100 to 500 nM.

Compound `CC(NC(=O)c1csc2ccccc12)c1cccc(C(=O)NO)c1` (stereo not shown) [Compound I-117, N-(1-{3-[(hydroxyamino)carbonyl]phenyl}ethyl)-1-benzothiophene-3-carboxamide] yielded an IC50 of 100 to 500 nM.

`Cc1nc(-c2ccccc2)ncc1C(=O)NC(c1ccc(C(=O)NO)cc1)C(C)C` (stereo not shown) [Compound I-17, N-(1-{4-[(hydroxyamino)carbonyl]phenyl}-2-methylpropyl)-4-methyl-2-phenylpyrimidine-5-carboxamide] returned an IC50 of 100 to 500 nM.

For the compound `CC(NS(=O)(=O)c1ccccc1)c1ccc(C(=O)NO)cc1` (stereo not shown) [Compound I-315, N-hydroxy-4-{1-[(phenylsulfonyl)amino]ethyl}benzamide], the IC50 fell in the range of 100 to 500 nM.

As to `CC(NC(=O)c1sccc1-n1cccc1)c1ccc(C(=O)NO)cc1` (stereo not shown) [Compound I-228, N-(1-{4-[(hydroxyamino)carbonyl]phenyl}ethyl)-3-(1H-pyrrol-1-yl)thiophene-2-carboxamide], the IC50 was under 100 nM.

What is called IC50 is the concentration at which inhibition is half-maximal. Read a low IC50 as greater potency in that assay.

(Values after US9382197B2, “Substituted hydroxamic acids and uses thereof” (Millennium Pharmaceuticals, Inc., priority 2010, dated 2016).)
